# According to article PMC12305496, “Bilosomal Encapsulation of Binuclear Phosphino Ru(II)–Cu(II) Compounds Enhances Their Selectivity and Activity toward Lung and Prostate Cancers” (Journal of Medicinal Chemistry, 2025):
# Columns and labels:
# Type in all cases: cell-based, human
# [1] = system: HEK293 cells; test: PrestoBlue HS cell viability assay, HEK293; conditions: 24 h, dissolved in 0.9% NaCl
# Protocol: (§1) Primary screening of the antiproliferative activity of the heteronuclear Ru(II)–Cu(II) complexes was performed by the commonly used MTT assay on four human cancer cell lines: MCF-7 (breast), A549 (lung adenocarcinoma), DU145 (prostate), and PANC-1 (pancreatic). In addition, normal human embryonic kidney (HEK293T) and human keratinocyte (HaCaT) cell lines were used as controls to assess the toxicity of these complexes. […] To verify whether the use of DMSO as a solvent influenced the cytotoxic activity of CDDP, we performed additional experiments (Figure S29) with CDDP (Sigma-Aldrich) dissolved in 0.9% NaCl as per the manufacturer’s recommendation. […]
# (§2) Additionally, the viability of A549 and DU145 cell lines, as well as the control cell line HEK293, upon CDDP in 0.9% NaCl, was assessed using the resazurin-based PrestoBlue HS Cell Viability assay, according to the manufacturer’s protocol. […] Results were recorded using fluorescence (excitation 560 nm, emission 590 nm) and absorbance (570 nm), with fluorescence values calculated further using GraphPad Prism software, v. […]
# (§3) Figure S29. […] Cells were incubated with varying concentrations of CDDP for 24 h and cell viability was measured by fluorescence intensity (excitation 560 nm, emission 590 nm). […]
# [2] = system: A549 cells; test: PrestoBlue HS cell viability assay, A549; conditions: 24 h, dissolved in 0.9% NaCl
# Protocol: as §1, §2, §3
# [3] = system: BAX and BCL-2 genes' expression; test: RT-qPCR of BAX and BCL-2 gene expression in A549 cells; conditions: mRNA, control = 1
# Protocol: In this study, using Reverse transcription (RT)-quantitative real-time PCR (RT-qPCR), we analyzed whether the expression ratio of Bax to Bcl-2 mRNA correlates with apoptosis or the proliferative activity of cancer cells. −
# For this purpose, total RNA was isolated using the Total RNA Mini Plus kit (A&A Biotechnology, Gdansk, Poland) following the manufacturer’s instructions. A total of 1 μg of RNA was subjected to RT into complementary DNA (cDNA) using oligo­(dT)­18 and the TranScriba Kit (A&A Biotechnology, Gdansk, Poland). The qRT-PCR experiments were performed with the Sensitive RT HS-PCR Mix (A&A Biotechnology, Gdansk, Poland) on a real-time PCR thermal cycler from Bio-Rad. The TaqMan primers used in this study were obtained from Thermo Fisher Scientific/Invitrogen, specifically Bax (Hs00180269_m1), Bcl-2 (Hs04986394_s1), and GAPDH (4352932E). The relative transcript quantification was carried out using the 2^–ΔΔCt method with GAPDH as the reference gene.
# [4] = system: DU145 cells; test: PrestoBlue HS cell viability assay, DU145; conditions: 24 h, dissolved in 0.9% NaCl
# Protocol: as §1, §2, §3
# [5] = system: DU145 cells; test: MTT cytotoxicity assay, DU145
# Protocol: (§4) Primary screening of the antiproliferative activity of the heteronuclear Ru­(II)–Cu­(II) complexes was performed by the commonly used MTT assay on four human cancer cell lines: MCF-7 (breast), A549 (lung adenocarcinoma), DU145 (prostate), and PANC-1 (pancreatic). In addition, normal human embryonic kidney (HEK293T) and human keratinocyte (HaCaT) cell lines were used as controls to assess the toxicity of these complexes. The IC50 values (the concentration that causes 50% inhibition of cell proliferation) examined for compounds are compared to those obtained for clinically used cisplatin (CDDP) under the same experimental conditions.
# (§5) The MCF7 cell line (human breast adenocarcinoma; morphology: epithelial-like, ATCC: HTB-22), A549 cell line (human lung adenocarcinoma, morphology: epithelial, ATCC: CCL-185), PANC-1 (human pancreatic/duct carcinoma, morphology: epithelial, ATCC: CRL-1469), and HaCaT (human keratinocyte, ATCC PCS-200-011) were cultured in DMEM (Corning), supplemented with 10% fetal bovine serum (FBS) and with 1% streptomycin/penicillin. The DU145 cell line (human prostate carcinoma) and HEK293T and HEK293 cell line (human embryonic kidney) were cultured in minimum essential medium (MEM, Corning) with 10% FBS. Cultures were incubated at 37 °C under a humidified atmosphere containing 5% CO2. Cells were passaged using a solution containing 0.05% trypsin and 0.5 mM EDTA. All media and other ingredients were purchased from ALAB­(Poland) or Thermo Fisher Scientific (USA).
# (§6) Since most of the studied compounds are insoluble in aqueous media, they needed to be predissolved in DMSO for biological evaluation. DMSO was used in cell cultures at a concentration below 0.1% (v/v) to minimize its cytotoxicity and changes in gene expression. Cytotoxicity of the studied compounds was assessed using an MTT assay performed according to the protocols described previously. […] After that time, solutions of compounds were washed out, cells were then washed three times with PBS (1X), and a fresh medium was applied. Each compound concentration was tested in five replicates and repeated at least three times. Determined values of IC50 (concentration of a drug required to inhibit the growth of 50% of the cells) are given as mean ± SD. […] IC50 values were determined, after 72 h, from the plots of cell viability in the presence of various concentrations of each compound by matching the dose–response curves.
# [6] = system: HEK293T cells; test: MTT cytotoxicity assay, HEK293T
# Protocol: as §4, §5, §6
# [7] = system: PANC-1 cells; test: MTT cytotoxicity assay, PANC-1
# Protocol: as §4, §5, §6
# [8] = system: A549 cells; test: MTT cytotoxicity assay, A549
# Protocol: as §4, §5, §6
# [9] = system: MCF7 cells; test: MTT cytotoxicity assay, MCF7
# Description: The IC50 values (the concentration that causes 50% inhibition of cell proliferation) examined for compounds are compared to those obtained for clinically used cisplatin (CDDP) under the same experimental conditions.
# The MCF7 cell line (human breast adenocarcinoma; morphology: epithelial-like, ATCC: HTB-22), A549 cell line (human lung adenocarcinoma, morphology: epithelial, ATCC: CCL-185), PANC-1 (human pancreatic/duct carcinoma, morphology: epithelial, ATCC: CRL-1469), and HaCaT (human keratinocyte, ATCC PCS-200-011) were cultured in DMEM (Corning), supplemented with 10% fetal bovine serum (FBS) and with 1% streptomycin/penicillin. […] Cultures were incubated at 37 °C under a humidified atmosphere containing 5% CO2. Cells were passaged using a solution containing 0.05% trypsin and 0.5 mM EDTA.
# as §6
# [10] = system: HaCaT cells; test: MTT cytotoxicity assay, HaCaT
# Protocol: as §4, §5, §6
# [11] = system: A549 cells; test: Cell cycle analysis by flow cytometry; conditions: A549, 5 μM, 24 h
# Protocol: Before treatment, cells were synchronized, and the compounds were applied at various concentrations.
# The A549 and DU145 cells (3 × 10^5/well) were seeded in 12-well plates and treated with various concentrations of the examined complexes and CDDP for 24 h. Synchronization of A549 and DU145 cell cultures was performed by serum starvation. Serum starvation is widely used for synchronizing donor cells by arresting them in the G 0/G 1 phase of the cell cycle. Cell cultures were seeded and incubated in growth medium with 20% FBS overnight to synchronize the cell cultures. Then, the cultures were rinsed with PBS (1×) and changed to a serum-free medium. After serum starvation for 18 h, the cells were passaged and released into the cell cycle by the addition of the serum. Then cells were treated with the examined compounds and CDDP for 24 h. For FACS analysis, cell samples were harvested with trypsinization and stained with propidium iodide (20 μg/mL). Cell cycle phase distributions were analyzed by flow cytometry (BD Bioscience). Experiments were reaped at least three times.
# [12] = 24 h, Table 2 (bilosome comparison)
# [13] = 24 h treatment, DMSO predissolved
# [14] = 72 h (24 h + 48 h regeneration)
Compound,Bax/Bcl-2 ratio [3],"IC50 [5, 12] [µM]","IC50 [5, 13] [µM]","IC50 [5, 14] [µM]","IC50 [6, 12] [µM]",IC50 ([6]; 24 h treatment) [µM],"IC50 [6, 14] [µM]",IC50 ([7]; 24 h treatment) [µM],"IC50 [7, 14] [µM]","IC50 [8, 13] [µM]","IC50 [8, 14] [µM]",IC50 ([9]; 24 h treatment) [µM],"IC50 [10, 12] [µM]",IC50 ([10]; 24 h treatment) [µM],"IC50 [10, 14] [µM]",effect on cell cycle [11],further results
"[NH2][Pt]([NH2])([Cl])[Cl] [CDDP, cisplatin, reference compound]",4.56,68.3 ± 1.3,68.3 ± 1.35,65.5 ± 3.61,21 ± 1.6,21 ± 1.81,10.3 ± 2.15,95.6 ± 2.61,76.6 ± 1.68,57 ± 1.3,71.7 ± 3.7,51.9 ± 4.61,43.3 ± 1.1,43.3 ± 1.1,17.3 ± 3.1,,"IC50 [1]: 87 µM; IC50 [2]: 51.9 µM; IC50 [4]: 101 µM; IC50 [8, 12]: 57 ± 1.3 µM; IC50 [9, 14]: 17.7 ± 8.6 µM"
[Ru(η^6-p-cymene)Cl2Pcfx-Cu(phen)](NO3) [RuPCpCu],6.4,31 ± 1.05,31 ± 1.05,15 ± 0.44,644 ± 13.1,644 ± 13.1,796 ± 8.9,25.9 ± 0.01,21.7 ± 1.02,44.4 ± 0.78,12.6 ± 0.83,25 ± 0.91,935 ± 9.3,935 ± 9.3,834 ± 11.9,induced cell cycle arrest in the S phase,
[Ru(η^6-p-cymene)Cl2Plfx-Cu(phen)](NO3) [RuPLmCu],,,18.9 ± 1.21,12.7 ± 0.92,,634 ± 9.1,782 ± 14.2,28.3 ± 0.71,22.7 ± 1.03,42.6 ± 0.68,24.3 ± 0.91,26.7 ± 2.82,,936 ± 10.1,833 ± 12.2,,
[Ru(η^6-p-cymene)Cl2Pnfx-Cu(phen)](NO3) [RuPNrCu],,,14.5 ± 1.04,14.9 ± 0.23,,677 ± 12.7,798 ± 14.8,29.5 ± 0.81,23.1 ± 1.09,48.1 ± 0.06,18.8 ± 3.4,24.7 ± 1.95,,> 1000,873 ± 18.8,,
[Ru(η^6-p-cymene)Cl2Psfx-Cu(phen)] [RuPSfCu],,,16 ± 0.05,13.5 ± 0.35,,546 ± 11.2,695 ± 14.2,27.2 ± 0.86,22.1 ± 0.68,41.1 ± 0.7,25.4 ± 1.66,17.7 ± 0.93,,> 1000,741 ± 13.2,induced cell cycle arrest in the S phase,
